Data as given in US8513421B2, “Substituted hydroxamic acids and uses thereof” (Millennium Pharmaceuticals, Inc., priority 2010, dated 2013).
pIC50: −log10 of the molar value.

biological target: T1, purified human HDAC6 (Homo sapiens, UniProt Q9UBN7); test: HDAC6 Enzyme Assay; assay type: biochemical; settings: purified human HDAC6, substrate Ac-Arg-Gly-Lys(Ac)-AMC, 1 hour at 30° C.
T1 construct: purchased BPS Bioscience 5006
T1 sequence (Q9UBN7 1-1215): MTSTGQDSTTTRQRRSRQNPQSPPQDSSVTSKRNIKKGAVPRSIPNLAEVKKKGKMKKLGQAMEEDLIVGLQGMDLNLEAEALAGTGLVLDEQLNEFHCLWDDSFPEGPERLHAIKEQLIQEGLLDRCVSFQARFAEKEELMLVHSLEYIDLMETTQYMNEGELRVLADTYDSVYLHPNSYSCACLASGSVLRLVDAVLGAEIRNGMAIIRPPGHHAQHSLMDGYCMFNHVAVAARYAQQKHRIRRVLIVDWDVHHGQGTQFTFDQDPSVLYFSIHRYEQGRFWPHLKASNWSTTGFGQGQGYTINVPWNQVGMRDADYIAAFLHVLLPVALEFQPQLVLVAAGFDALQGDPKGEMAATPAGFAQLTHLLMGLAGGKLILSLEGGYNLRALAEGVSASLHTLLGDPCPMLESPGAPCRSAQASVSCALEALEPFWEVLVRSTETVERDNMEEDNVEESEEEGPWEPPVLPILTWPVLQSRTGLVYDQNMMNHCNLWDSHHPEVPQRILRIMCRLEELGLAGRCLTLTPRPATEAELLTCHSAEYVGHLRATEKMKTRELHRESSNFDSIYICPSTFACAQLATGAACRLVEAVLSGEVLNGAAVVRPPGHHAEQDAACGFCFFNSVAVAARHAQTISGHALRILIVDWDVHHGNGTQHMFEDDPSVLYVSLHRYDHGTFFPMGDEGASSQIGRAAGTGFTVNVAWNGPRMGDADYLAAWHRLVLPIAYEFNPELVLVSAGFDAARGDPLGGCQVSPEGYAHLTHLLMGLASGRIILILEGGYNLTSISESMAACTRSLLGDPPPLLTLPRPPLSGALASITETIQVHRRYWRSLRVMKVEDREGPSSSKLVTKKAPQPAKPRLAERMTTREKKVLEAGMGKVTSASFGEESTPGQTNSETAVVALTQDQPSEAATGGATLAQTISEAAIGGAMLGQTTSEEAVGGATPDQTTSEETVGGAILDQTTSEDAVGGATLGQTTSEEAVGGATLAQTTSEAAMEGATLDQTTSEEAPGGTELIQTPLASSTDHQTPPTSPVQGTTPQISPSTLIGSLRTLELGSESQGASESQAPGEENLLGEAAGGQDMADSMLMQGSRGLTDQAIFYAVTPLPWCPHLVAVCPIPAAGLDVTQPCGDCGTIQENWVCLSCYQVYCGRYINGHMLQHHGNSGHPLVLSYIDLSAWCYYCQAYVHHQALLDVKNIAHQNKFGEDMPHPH
Method: To measure the inhibition of HDAC6 activity, purified human HDAC6 (BPS Bioscience; Cat. No. 5006) is incubated with substrate Ac-Arg-Gly-Lys(Ac)-AMC peptide (Bachem Biosciences; Cat. No. I-1925) for 1 hour at 30° C. in the presence of test compounds or vehicle DMSO control. The reaction is stopped with the HDAC inhibitor trichostatin A (Sigma; Cat. No. T8552) and the amount of Arg-Gly-Lys-AMC generated is quantitated by digestion with trypsin (Sigma; Cat. No. T1426) and subsequent measurement of the amount of AMC released using a fluorescent plate reader (Pherastar; BMG Technologies) set at Ex 340 nm and Em 460 nm. Concentration response curves are generated by calculating the fluorescence increase in test compound-treated samples relative to DMSO-treated controls, and enzyme inhibition (IC50) values are determined from those curves.

pIC50	Compound
6.30 to 7.00	CN(C)Cc1cc(C(=O)Nc2ccc3ncc(C(=O)NO)cc3c2)cc(C(F)(F)F)c1 [Compound I-1, 6-{[3-[(dimethylamino)methyl]-5-(trifluoromethyl)benzoyl]amino}-N-hydroxyquinoline-3-carboxamide]
6.30 to 7.00	O=C(NO)c1cnc2ccc(Oc3cccc(Cl)c3)cc2c1 [Compound I-2, 6-(3-chlorophenoxy)-N-hydroxyquinoline-3-carboxamide]
< 6.30	COc1ccc2cc(C(=O)NO)cnc2c1 [Compound I-3, N-hydroxy-7-methoxyquinoline-3-carboxamide]
6.30 to 7.00	O=C1CCc2c(Oc3ccc4cc(C(=O)NO)cnc4c3)ccnc2N1 [Compound I-4, N-hydroxy-7-[(7-oxo-5,6,7,8-tetrahydro-1,8-naphthyridin-4-yl)oxy]quinoline-3-carboxamide]
6.30 to 7.00	COc1ccc(C(=O)Nc2ccc3cc(C(=O)NO)cnc3c2)cc1 [Compound I-5, N-hydroxy-7-[(4-methoxybenzoyl)amino]quinoline-3-carboxamide]
> 7.00	O=C(NO)c1cnc2ccc(NC(=O)C3CC3)cc2c1 [Compound I-6, 6-[(cyclopropylcarbonyl)amino]-N-hydroxyquinoline-3-carboxamide]
6.30 to 7.00	O=C(NO)c1cnc2ccc(Nc3ccccc3)cc2c1 [Compound I-7, 6-anilino-N-hydroxyquinoline-3-carboxamide]
> 7.00	Cn1cc(-c2cc(C(=O)Nc3ccc4ncc(C(=O)NO)cc4c3)cc(C(F)(F)F)c2)cn1 [Compound I-8, N-hydroxy-6-{[3-(1-methyl-1H-pyrazol-4-yl)-5-(trifluoromethyl)benzoyl]amino}quinoline-3-carboxamide]
6.30 to 7.00	O=C(NO)c1cnc2ccc(Nc3ccncc3)cc2c1 [Compound I-9, N-hydroxy-6-(pyridin-4-ylamino)quinoline-3-carboxamide]
> 7.00	CC(C)(C)OC(=O)Nc1ccc2cc(C(=O)NO)cnc2c1 [Compound I-10, tert-butyl {3-[(hydroxyamino)carbonyl]quinolin-7-yl}carbamate]
> 7.00	O=C(NO)c1cnc2ccc(-c3ccncc3)cc2c1 [Compound I-11, N-hydroxy-6-pyridin-4-ylquinoline-3-carboxamide]
6.30 to 7.00	O=C(NO)c1cnc2ccc(Oc3ccccc3)cc2c1 [Compound I-12, N-hydroxy-6-phenoxyquinoline-3-carboxamide]
> 7.00	O=C(NO)c1cnc2ccc(NS(=O)(=O)c3ccccc3)cc2c1 [Compound I-13, N-hydroxy-6-[(phenylsulfonyl)amino]quinoline-3-carboxamide]
> 7.00	O=C(Nc1ccccc1)Nc1ccc2ncc(C(=O)NO)cc2c1 [Compound I-14, 6-[(anilinocarbonyl)amino]-N-hydroxyquinoline-3-carboxamide]
6.30 to 7.00	O=C(NO)c1cnc2cc(Oc3cccc(Cl)c3)ccc2c1 [Compound I-15, 7-(3-chlorophenoxy)-N-hydroxyquinoline-3-carboxamide]
6.30 to 7.00	O=C(NO)c1cnc2cc(Oc3ccc(Cl)cc3)ccc2c1 [Compound I-16, 7-(4-chlorophenoxy)-N-hydroxyquinoline-3-carboxamide]
> 7.00	O=C(NO)c1cnc2ccc(NCc3ccccc3)cc2c1 [Compound I-17, 6-(benzylamino)-N-hydroxyquinoline-3-carboxamide]

pIC50	Compound
> 7.00	O=C(NO)c1cnc2ccc(CCc3ccccc3)cc2c1 [Compound I-18, N-hydroxy-6-(2-phenylethyl)quinoline-3-carboxamide]
< 6.30	COc1ccc2ncc(C(=O)NO)cc2c1 [Compound I-19, N-hydroxy-6-methoxyquinoline-3-carboxamide]
> 7.00	O=C(NO)c1cnc2ccc(NC(=O)c3ccccc3)cc2c1 [Compound I-20, 6-(benzoylamino)-N-hydroxyquinoline-3-carboxamide]
> 7.00	CC(C)(C)OC(=O)Nc1ccc2ncc(C(=O)NO)cc2c1 [Compound I-21, tert-butyl {3-[(hydroxyamino)carbonyl]quinolin-6-yl}carbamate]
> 7.00	COc1ccc(C(=O)Nc2ccc3ncc(C(=O)NO)cc3c2)cc1 [Compound I-22, N-hydroxy-6-[(4-methoxybenzoyl)amino]quinoline-3-carboxamide]
6.30 to 7.00	O=C(NO)c1cnc2cc(Oc3ccnc(NC(=O)C4CC4)c3)ccc2c1 [Compound I-23, 7-({2-[(cyclopropylcarbonyl)amino]pyridin-4-yl}oxy)-N-hydroxyquinoline-3-carboxamide]
> 7.00	O=C(NO)c1cnc2cc(Nc3ccccc3)ccc2c1 [Compound I-24, 7-anilino-N-hydroxyquinoline-3-carboxamide]
6.30 to 7.00	O=C(NO)c1cnc2cc(-c3ccc(Cl)cc3)ccc2c1 [Compound I-25, 7-(4-chlorophenyl)-N-hydroxyquinoline-3-carboxamide]
6.30 to 7.00	O=C1CCc2c(Oc3ccc4ncc(C(=O)NO)cc4c3)ccnc2N1 [Compound I-26, N-hydroxy-6-[(7-oxo-5,6,7,8-tetrahydro-1,8-naphthyridin-4-yl)oxy]quinoline-3-carboxamide]
6.30 to 7.00	O=C(NO)c1cnc2ccc(-c3ccc(Cl)cc3)cc2c1 [Compound I-27, 6-(4-chlorophenyl)-N-hydroxyquinoline-3-carboxamide]
> 7.00	O=C(NO)c1cnc2cc(Nc3ccncc3)ccc2c1 [Compound I-28, N-hydroxy-7-(pyridin-4-ylamino)quinoline-3-carboxamide]
6.30 to 7.00	O=C(NO)c1cnc2ccc(Oc3ccc(Cl)cc3)cc2c1 [Compound I-29, 6-(4-chlorophenoxy)-N-hydroxyquinoline-3-carboxamide]
> 7.00	O=C(NO)c1cnc2ccc(Nc3ccc(Cl)cc3)cc2c1 [Compound I-30, 6-[(4-chlorophenyl)amino]-N-hydroxyquinoline-3-carboxamide]
> 7.00	O=C(NO)c1cnc2ccc(Oc3ccnc(NC(=O)C4CC4)c3)cc2c1 [Compound I-31, 6-({2-[(cyclopropylcarbonyl)amino]pyridin-4-yl}oxy)-N-hydroxyquinoline-3-carboxamide]
6.30 to 7.00	O=C(NO)c1cnc2ccc(Oc3ccncc3)cc2c1 [Compound I-32, N-hydroxy-6-(pyridin-4-yloxy)quinoline-3-carboxamide]
6.30 to 7.00	O=C(NO)c1cnc2cc(-c3ccncc3)ccc2c1 [Compound I-33, N-hydroxy-7-pyridin-4-ylquinoline-3-carboxamide]
